What was measured:
[1] = molecular target: CLK2 (Homo sapiens, UniProt P49760); test: Selectivity screen CLK2; assay type: biochemical; conditions: 1 µM inhibitor, mean
Procedure: (§1) For the in vitro kinase assay, JAK3 (5–20 mU diluted in 50 mM Tris pH 7.5, 0.1 mM EGTA, 0.05% β-mercaptoethanol, 1 mg/ml BSA) was assayed against PDKtide ([…]) in a final volume of 25.5 µl containing 50 mM Tris pH 7.5, 0.1 mM EGTA, 0.05% β-mercaptoethanol, 100 µM substrate peptide, 10 mM magnesium acetate and 0.02 mM [33P-γ-ATP] (50–1000 cpm/pmole) and incubated for 30 min at room temperature. Assays were started by the addition of the ATP and stopped by addition of 5 µl of 0.5 M (3%) orthophosphoric acid and then harvested onto P81 Unifilter plates with a wash buffer of 50 mM orthophosphoric acid. To determine the Km for ATP, assays were run using 1, 5, 10, 20, 50, 100, 200, 400, 500 μM ATP and Km derived by non-linear regression fitting to the Michaelis–Menten equation v = Vmax[S]/(Km + [S]). IC50 values for inhibitors via non-linear regression using a parameter model: Y = Bottom + (Top–Bottom)/(1 + (IC50/X)^HillSlope). Non-linear regression was carried out in Prism (version 8). In vitro selectivity screen was carried out as described previously.

[2] = molecular target: PIM1 (Homo sapiens, UniProt P11309); test: Selectivity screen PIM1; assay type: biochemical; conditions: 1 µM inhibitor, mean
Chain of PIM1 (P11309 whole entry): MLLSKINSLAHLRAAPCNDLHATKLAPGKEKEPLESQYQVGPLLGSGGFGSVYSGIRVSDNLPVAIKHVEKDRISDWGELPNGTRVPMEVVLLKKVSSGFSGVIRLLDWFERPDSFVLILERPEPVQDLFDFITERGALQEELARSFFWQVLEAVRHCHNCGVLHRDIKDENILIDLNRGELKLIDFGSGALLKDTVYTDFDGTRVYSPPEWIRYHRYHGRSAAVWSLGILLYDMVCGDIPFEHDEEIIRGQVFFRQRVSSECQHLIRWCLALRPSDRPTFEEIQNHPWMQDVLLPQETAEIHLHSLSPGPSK
Procedure: as §1

[3] = molecular target: PKBa (Homo sapiens, UniProt P31749); test: Selectivity screen PKBa; assay type: biochemical; conditions: 1 µM inhibitor, mean; read-out: activity remaining in the presence of the inhibitor: PKBa
Chain of PKBa (P31749 whole entry): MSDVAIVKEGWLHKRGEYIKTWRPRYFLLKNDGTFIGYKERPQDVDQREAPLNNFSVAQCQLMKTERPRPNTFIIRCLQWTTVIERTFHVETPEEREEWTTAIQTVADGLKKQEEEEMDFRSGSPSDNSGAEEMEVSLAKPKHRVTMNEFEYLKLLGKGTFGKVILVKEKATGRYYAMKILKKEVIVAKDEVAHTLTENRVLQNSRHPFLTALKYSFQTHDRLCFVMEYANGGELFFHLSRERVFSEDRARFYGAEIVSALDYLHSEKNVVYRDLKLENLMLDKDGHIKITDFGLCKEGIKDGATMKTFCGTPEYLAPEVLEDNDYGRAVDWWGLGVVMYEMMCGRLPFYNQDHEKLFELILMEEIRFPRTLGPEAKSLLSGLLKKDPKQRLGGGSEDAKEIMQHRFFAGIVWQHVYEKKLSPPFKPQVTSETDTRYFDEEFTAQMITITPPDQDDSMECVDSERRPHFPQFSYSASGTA
Procedure: as §1

[4] = molecular target: PKBb (Homo sapiens, UniProt P31751); test: Selectivity screen PKBb; assay type: biochemical; conditions: 1 µM inhibitor, mean; read-out: activity remaining in the presence of the inhibitor: PKBb
Chain of PKBb (P31751 whole entry): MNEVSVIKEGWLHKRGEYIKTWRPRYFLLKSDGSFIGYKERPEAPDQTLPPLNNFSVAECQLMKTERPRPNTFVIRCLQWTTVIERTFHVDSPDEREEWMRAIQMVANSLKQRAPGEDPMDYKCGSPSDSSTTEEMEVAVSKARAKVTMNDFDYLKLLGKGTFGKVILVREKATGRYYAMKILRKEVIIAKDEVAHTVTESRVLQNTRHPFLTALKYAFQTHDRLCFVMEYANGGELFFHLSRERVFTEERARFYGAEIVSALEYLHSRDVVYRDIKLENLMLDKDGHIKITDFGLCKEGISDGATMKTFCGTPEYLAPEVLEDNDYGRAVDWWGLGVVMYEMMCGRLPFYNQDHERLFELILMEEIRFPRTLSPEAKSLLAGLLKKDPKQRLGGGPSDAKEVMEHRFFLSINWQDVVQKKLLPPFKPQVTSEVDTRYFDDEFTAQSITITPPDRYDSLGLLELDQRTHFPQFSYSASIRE
Procedure: as §1

[5] = molecular target: TTBK2 (Homo sapiens, UniProt Q6IQ55); test: Selectivity screen TTBK2; assay type: biochemical; conditions: 1 µM inhibitor, mean
Chain of TTBK2 (Q6IQ55 whole entry): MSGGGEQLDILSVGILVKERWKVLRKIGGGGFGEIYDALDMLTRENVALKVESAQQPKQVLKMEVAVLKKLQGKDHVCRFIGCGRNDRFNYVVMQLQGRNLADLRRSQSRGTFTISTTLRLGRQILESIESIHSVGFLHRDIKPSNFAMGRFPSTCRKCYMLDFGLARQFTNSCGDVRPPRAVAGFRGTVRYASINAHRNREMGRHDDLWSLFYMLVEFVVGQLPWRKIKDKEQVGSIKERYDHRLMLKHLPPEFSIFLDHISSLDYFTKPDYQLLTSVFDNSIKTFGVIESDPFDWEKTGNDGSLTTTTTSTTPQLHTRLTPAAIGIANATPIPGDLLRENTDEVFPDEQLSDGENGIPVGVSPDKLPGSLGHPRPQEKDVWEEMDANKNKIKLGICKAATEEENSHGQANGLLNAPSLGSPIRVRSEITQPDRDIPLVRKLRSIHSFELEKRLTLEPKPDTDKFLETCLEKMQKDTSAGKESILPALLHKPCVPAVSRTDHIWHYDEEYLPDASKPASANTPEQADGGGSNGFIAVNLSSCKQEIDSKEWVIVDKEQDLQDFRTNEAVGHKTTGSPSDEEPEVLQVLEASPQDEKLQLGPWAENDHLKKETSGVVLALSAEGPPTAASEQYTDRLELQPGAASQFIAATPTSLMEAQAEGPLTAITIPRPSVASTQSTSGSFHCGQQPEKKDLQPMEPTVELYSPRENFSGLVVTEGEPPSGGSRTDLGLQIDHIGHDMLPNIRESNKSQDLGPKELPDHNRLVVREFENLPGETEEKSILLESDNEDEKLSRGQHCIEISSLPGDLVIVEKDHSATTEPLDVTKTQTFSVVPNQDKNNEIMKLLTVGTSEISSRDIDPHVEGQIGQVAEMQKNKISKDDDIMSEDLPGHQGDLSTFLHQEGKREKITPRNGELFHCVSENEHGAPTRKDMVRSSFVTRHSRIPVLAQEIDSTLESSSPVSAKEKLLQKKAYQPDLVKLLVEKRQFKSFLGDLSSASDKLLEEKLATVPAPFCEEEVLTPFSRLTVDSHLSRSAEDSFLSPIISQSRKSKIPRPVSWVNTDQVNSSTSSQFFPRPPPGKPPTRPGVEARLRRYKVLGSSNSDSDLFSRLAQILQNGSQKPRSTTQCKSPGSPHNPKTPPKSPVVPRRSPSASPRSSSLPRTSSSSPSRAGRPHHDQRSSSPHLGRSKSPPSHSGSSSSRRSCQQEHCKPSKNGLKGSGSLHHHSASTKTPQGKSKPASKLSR
Procedure: as §1

[6] = molecular target: TSSK1 (Homo sapiens, UniProt Q9BXA7); test: Selectivity screen TSSK1; assay type: biochemical; conditions: 1 µM inhibitor, mean
Chain of TSSK1 (Q9BXA7 whole entry): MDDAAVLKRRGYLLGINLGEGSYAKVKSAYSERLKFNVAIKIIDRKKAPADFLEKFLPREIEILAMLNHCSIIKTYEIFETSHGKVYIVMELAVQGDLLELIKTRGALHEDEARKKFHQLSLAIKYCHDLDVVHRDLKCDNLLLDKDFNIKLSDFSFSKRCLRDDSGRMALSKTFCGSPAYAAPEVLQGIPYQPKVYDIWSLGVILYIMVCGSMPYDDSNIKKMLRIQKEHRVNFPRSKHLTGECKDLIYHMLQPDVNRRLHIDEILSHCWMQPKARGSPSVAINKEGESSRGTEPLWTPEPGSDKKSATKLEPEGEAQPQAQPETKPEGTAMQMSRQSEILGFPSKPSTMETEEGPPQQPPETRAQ
Procedure: as §1

[7] = system: IFNβ induced STAT1 phosphorylation in BMDMs; design: method as in PMID 26258521; conditions: cited from earlier work
[8] = system: IL-10 induced STAT3 phosphorylation in BMDMs; design: method as in PMID 26258521; conditions: cited from earlier work
[9] = system: GM-CSF induced STAT5 phosphorylation in BMDMs; design: method as in PMID 26258521; conditions: 5 μM; cited from earlier work
[10] = system: JAK2; conditions: ATP 4 μM; read-out: In vitro IC50 JAK2; cited from earlier work
[11] = system: JAK3; conditions: ATP 4 μM; read-out: In vitro IC50 JAK3; cited from earlier work
[12] = system: IL-2 induced STAT5 phosphorylation in wild type CD8 T cells; test: IL-2 induced STAT5 phosphorylation in wild type T cells; assay type: cell-based, mouse; conditions: inhibitor 30 min, 10 ng/ml IL-2 30 min
Procedure: (§2) (A) Single cell suspensions were prepared from the spleens of wild type mice. […] Cells were then stimulated with 10 ng/ml IL-4 for 30 min and the levels of phosphorylated STAT6 determined by immunoblotting. (B) As (A) except cells were stimulated with 10 ng/ml IL-2 and the levels of phosphorylated STAT5 determined. (C) CD8 T cells were expanded from the lymph nodes of wild type and JAK3 Cys905Ser knockin mice. Cells were rested in the absence of IL-2 for 60 min then incubated with the indicated concentrations of PF-06651600 for a further 30 min before stimulation with 10 ng/ml of IL-2 for 30 min. The levels of phosphorylated STAT5 and total ERK1/2 were then determined.
(§3) Lymph Nodes were harvested from the mice and a single cell suspension in PBS made by passing the tissue through a […] strainer. The cells were counted and seeded at density of 10^6 cells/ml in RPMI supplemented with10% heat inactivated FBS (Labtech), 2 mM L-glutamine, 100 U/ml penicillin G, 100 μg/ml streptomycin, 0.25 μg/ml amphotericin and 50 μM β-mercaptoethanol and stimulated with 1 μg/ml anti-CD28 (cat:16-0281-82; clone:37.51 Thermo Fisher), 1 μg/ml anti CD3e (cat:16-0031-85, Clone:145-2C11 Thermo Fisher), 20 ng/ml of IL-2 and 1 ng/ml of IL-12. The cells were cultured for 36 h and then the cell suspension was diluted 5 times with RPMI media containing 20 ng/ml of IL-2. […]

[13] = system: JAK1; conditions: ATP 40 μM; read-out: In vitro IC50 JAK1; cited from earlier work
[14] = system: IL-2 induced STAT5 phosphorylation in T cells from JAK3 Cys905Ser knockin mice; test: IL-2 induced STAT5 phosphorylation in JAK3 Cys905Ser knockin T cells; assay type: cell-based, mouse; conditions: CD8 T cells, inhibitor 30 min, 10 ng/ml IL-2 30 min
Procedure: as §2, §3

Chain of CLK2 (P49760 whole entry): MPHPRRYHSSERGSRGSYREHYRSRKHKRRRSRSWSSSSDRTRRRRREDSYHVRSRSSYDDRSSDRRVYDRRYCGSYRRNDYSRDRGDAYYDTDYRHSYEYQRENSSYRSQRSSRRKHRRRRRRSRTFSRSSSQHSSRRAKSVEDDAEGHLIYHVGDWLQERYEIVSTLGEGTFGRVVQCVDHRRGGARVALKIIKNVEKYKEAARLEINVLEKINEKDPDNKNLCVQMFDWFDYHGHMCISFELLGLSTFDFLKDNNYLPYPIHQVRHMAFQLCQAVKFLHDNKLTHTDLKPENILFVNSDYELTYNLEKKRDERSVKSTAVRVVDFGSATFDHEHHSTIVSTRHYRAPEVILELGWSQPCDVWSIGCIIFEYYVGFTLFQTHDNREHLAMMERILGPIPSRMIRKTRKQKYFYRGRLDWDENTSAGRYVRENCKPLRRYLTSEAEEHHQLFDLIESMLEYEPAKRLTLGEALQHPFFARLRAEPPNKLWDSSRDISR

SMILES	activity remaining in the presence of the inhibitor: CLK2 [1]	activity remaining in the presence of the inhibitor: PIM1 [2]	remaining activity at 1 µM [3]	remaining activity at 1 µM [4]	activity remaining in the presence of the inhibitor: TTBK2 [5]	activity remaining in the presence of the inhibitor: TSSK1 [6]	inhibition of IFNβ signaling in macrophages ([7]; 5 μM)	block of STAT phosphorylation by IFNβ ([7]; 10 μM as printed in discussion)	inhibition of IL-10 signaling in macrophages ([8]; 5 μM)	block of STAT phosphorylation by IL-10 ([8]; 10 μM as printed in discussion)	inhibition of GM-CSF signaling in macrophages [9]	IC50 [10]	IC50 [11]	block of IL-2 induced STAT5 phosphorylation in isolated wild type T cells [12]	IC50 [13]	block of IL-2 induced STAT5 phosphorylation in T cells from JAK3 Cys905Ser knockin mice [14]
C=CC(=O)Nc1cccc(CNc2nc(Nc3ccc(N4CCOCC4)cc3)ncc2Cl)c1 [TL8-52]	29	111	100%	107%	106	57										
C=CC(=O)Nc1cccc(CNc2nc(Nc3ccc(N4CCN(C)CC4)cc3OC)ncc2Cl)c1 [TL6-144]	62	95		107%	94	34	does not inhibit	did not block	does not inhibit	did not block	does not inhibit					
C=CC(=O)N1C[C@H](Nc2ncnc3[nH]ccc23)CC[C@@H]1C [PF-06651600, 1-((2S,5R)-5-((7H-Pyrrolo[2,3-d]pyrimidin-4-yl)amino)-2-methylpiperidin-1-yl)prop-2-en-1-one, reference compound]												> 10 µM	[…]	able to block	> 10 µM	did not block
